Measured values: patent US20230233690A1, “ANDROGEN RECEPTOR PROTEIN DEGRADERS” (THE REGENTS OF THE UNIVERSITY OF MICHIGAN, priority 2020, published 2023)

Biological target: T1, AR protein (Homo sapiens, UniProt P10275)
T1 construct: endogenous in cells; host or cells: VCaP
T1 sequence (P10275 1-920): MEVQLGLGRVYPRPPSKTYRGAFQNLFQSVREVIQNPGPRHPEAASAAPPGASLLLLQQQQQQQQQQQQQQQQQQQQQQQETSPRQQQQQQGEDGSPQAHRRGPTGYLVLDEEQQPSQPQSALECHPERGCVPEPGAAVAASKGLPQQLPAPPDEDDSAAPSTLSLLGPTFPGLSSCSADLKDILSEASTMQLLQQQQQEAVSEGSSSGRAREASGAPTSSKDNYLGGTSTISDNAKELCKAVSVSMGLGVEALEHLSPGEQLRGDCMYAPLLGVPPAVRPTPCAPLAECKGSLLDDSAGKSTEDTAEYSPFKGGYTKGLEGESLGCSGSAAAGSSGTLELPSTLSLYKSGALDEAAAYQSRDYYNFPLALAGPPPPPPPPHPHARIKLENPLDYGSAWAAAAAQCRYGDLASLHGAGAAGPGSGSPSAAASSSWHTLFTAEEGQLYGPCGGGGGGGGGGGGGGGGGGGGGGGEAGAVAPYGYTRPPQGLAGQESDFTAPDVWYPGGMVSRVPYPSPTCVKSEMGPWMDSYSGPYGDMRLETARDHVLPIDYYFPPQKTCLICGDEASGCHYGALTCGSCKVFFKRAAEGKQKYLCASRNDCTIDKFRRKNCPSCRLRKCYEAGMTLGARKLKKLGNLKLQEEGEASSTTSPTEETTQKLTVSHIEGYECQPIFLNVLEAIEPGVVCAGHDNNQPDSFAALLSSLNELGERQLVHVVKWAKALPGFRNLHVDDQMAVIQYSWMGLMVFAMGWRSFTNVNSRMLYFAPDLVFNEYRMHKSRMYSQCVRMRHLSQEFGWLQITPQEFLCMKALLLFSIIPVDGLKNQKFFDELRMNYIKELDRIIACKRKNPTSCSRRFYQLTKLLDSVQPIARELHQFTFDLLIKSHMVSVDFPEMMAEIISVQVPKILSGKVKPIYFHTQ
Experiment: Western blotting of AR protein degradation in VCaP cells
Type: cell-based
Conditions: for AR protein degradation VCap 10 nM / AR protein degradation VCap 100 nM: 24 hr treatment
Description: The treated cells were lysed with RIPA buffer. […] GAPDH was used as a loading control.
Bands were quantified with ImageJ software. The relative numbers of each band obtained from normalization with its corresponding GAPDH level were compared with Prism 8 software. The DC50 values were produced from Prism 8, and the DC90 values were calculated with an equation=Bottom+(Top−Bottom)/(1+10^((Log EC50−X)*HillSlope) based on DC50 and Hillslope values.

Structure (SMILES)	AR protein degradation VCap 10 nM	AR protein degradation VCap 100 nM	% AR protein degradation in VCaP Cells (0.001 μM) [%]	% AR protein degradation in VCaP Cells (0.01 μM) [%]	% AR protein degradation in VCaP Cells (0.1 μM) [%]	% AR protein degradation in VCaP Cells (1 μM) [%]
CN(c1ccc(C#N)c(Cl)c1)[C@H]1CC[C@H](NC(=O)c2ccc(N3CCN(C4CN(c5ccc6c(c5)C(=O)N(C5CCC(=O)NC5=O)C6=O)C4)CC3)cc2)CC1 (stereo partly shown) [Cpd. No. 31, N-((1r,4r)-4-((3-chloro-4-cyanophenyl)(methyl)amino)cyclohexyl)-4-(4-(1-(2-(2,6-dioxopiperidin-3-yl)-1,3-dioxoisoindolin-5-yl)azetidin-3-yl)piperazin-1-yl)benzamide]	A (>90% degradation (24 hr treatment))	A (>90% degradation (24 hr treatment))				
N#Cc1ccc(O[C@H]2CC[C@H](NC(=O)c3ccc(N4CCN(C5CN(c6ccc7c(c6)C(=O)N(C6CCC(=O)NC6=O)C7=O)C5)CC4)cc3)CC2)cc1Cl (stereo partly shown) [Cpd. No. 22]	A (>90% degradation (24 hr treatment))	A (>90% degradation (24 hr treatment))				
N#Cc1ccc(O[C@H]2CC[C@H](NC(=O)c3ccc4c(c3)CN(CC3CCN(c5ccc6c(c5)C(=O)N(C5CCC(=O)NC5=O)C6=O)CC3)C4)CC2)cc1Cl (stereo partly shown) [compound 8]		A (>90% degradation (24 hr treatment))				
N#Cc1ccc(O[C@H]2CC[C@H](NC(=O)c3ccc(NCCCCCCNc4ccc5c(c4)C(=O)N(C4CCC(=O)NC4=O)C5=O)cc3)CC2)cc1Cl (stereo partly shown) [compound 212, N-((1r,4r)-4-(3-chloro-4-cyanophenoxy)cyclohexyl)-4-((6-((2-(2,6-dioxopiperidin-3-yl)-1,3-dioxoisoindolin-5-yl)amino)hexyl)amino)benzamide]			25	70	86	82
CN(c1ccc(C(=O)N2CCN(C3CCN(c4ccc5c(c4)C(=O)N(C4CCC(=O)NC4=O)C5=O)CC3)CC2)cc1)[C@H]1CC[C@H](Oc2ccc(C#N)c(Cl)c2)CC1 (stereo partly shown) [compound 14]		C (>10% degradation but <50% (24 hr treatment))				
N#Cc1ccc(N[C@H]2CC[C@H](NC(=O)c3ccc(N4CCC(N5CCN(c6ccc7c(c6)C(=O)N(C6CCC(=O)NC6=O)C7=O)CC5)CC4)cc3)CC2)cc1Cl (stereo partly shown) [compound 229, N-((1r,4r)-4-((3-chloro-4-cyanophenyl)amino)cyclohexyl)-4-(4-(4-(2-(2,6-dioxopiperidin-3-yl)-1,3-dioxoisoindolin-5-yl)piperazin-1-yl)piperidin-1-yl)benzamide]			51	62	52	43
CN(c1ccc(C(=O)N2CCN(CC3CCN(c4ccc5c(c4)C(=O)N(C4CCC(=O)NC4=O)C5=O)CC3)CC2)cc1)[C@H]1CC[C@H](Oc2ccc(C#N)c(Cl)c2)CC1 (stereo partly shown) [compound 15]		B (>50% degradation but <90% (24 hr treatment))				
N#Cc1ccc(O[C@H]2CCC[C@H](NC(=O)c3ccc(N4CCC(N5CCN(c6ccc7c(c6)C(=O)N(C6CCC(=O)NC6=O)C7=O)CC5)CC4)cc3)CCC2)cc1Cl (stereo partly shown) [compound 228, N-((1r,5r)-5-(3-chloro-4-cyanophenoxy)cyclooctyl)-4-(4-(4-(2-(2,6-dioxopiperidin-3-yl)-1,3-dioxoisoindolin-5-yl)piperazin-1-yl)piperidin-1-yl)benzamide]			12	21	51	47
CC(O)(CS(=O)(=O)c1ccc(N2CCN(C3CCN(c4ccc5c(c4)C(=O)N(C4CCC(=O)NC4=O)C5=O)CC3)CC2)cc1)C(=O)Nc1ccc(C#N)c(C(F)(F)F)c1 (stereo not shown) [compound 241, N-(4-cyano-3-(trifluoromethyl)phenyl)-3-((4-(4-(1-(2-(2,6-dioxopiperidin-3-yl)-1,3-dioxoisoindolin-5-yl)piperidin-4-yl)piperazin-1-yl)phenyl)sulfonyl)-2-hydroxy-2-methylpropanamide]			7	13	−2	27
N#Cc1ccc(O[C@H]2CC[C@H](NC(=O)c3ccc4c(c3)CCN(CC3CCN(c5ccc6c(c5)C(=O)N(C5CCC(=O)NC5=O)C6=O)CC3)C4)CC2)cc1Cl (stereo partly shown) [compound 9]		B (>50% degradation but <90% (24 hr treatment))				
N#Cc1ccc(O[C@H]2CC[C@H](NC(=O)c3ccc(NCCCCCCCCCCNc4ccc5c(c4)C(=O)N(C4CCC(=O)NC4=O)C5=O)cc3)CC2)cc1Cl (stereo partly shown) [compound 216, N-((1r,4r)-4-(3-chloro-4-cyanophenoxy)cyclohexyl)-4-((10-((2-(2,6-dioxopiperidin-3-yl)-1,3-dioxoisoindolin-5-yl)amino)decyl)amino)benzamide]			−11	−9	1	22
N#Cc1ccc(O[C@H]2CC[C@H](NC(=O)c3ccc(NCCCCCCCNc4ccc5c(c4)C(=O)N(C4CCC(=O)NC4=O)C5=O)cc3)CC2)cc1Cl (stereo partly shown) [compound 213, N-((1r,4r)-4-(3-chloro-4-cyanophenoxy)cyclohexyl)-4-((7-((2-(2,6-dioxopiperidin-3-yl)-1,3-dioxoisoindolin-5-yl)amino)heptyl)amino)benzamide]			17	40	62	38
N#Cc1ccc(O[C@H]2CC[C@H](NC(=O)c3ccc(N4CCN(CCCNc5ccc6c(c5)C(=O)N(C5CCC(=O)NC5=O)C6=O)CC4)cc3)CC2)cc1Cl (stereo partly shown) [compound 219, N-((1r,4r)-4-(3-chloro-4-cyanophenoxy)cyclohexyl)-4-(4-(3-((2-(2,6-dioxopiperidin-3-yl)-1,3-dioxoisoindolin-5-yl)amino)propyl)piperazin-1-yl)benzamide]			18	69	80	59
C[C@H]1C[C@@H](NC(=O)c2ccc(N3CCN(C4CN(c5ccc6c(c5)C(=O)N(C5CCC(=O)NC5=O)C6=O)C4)CC3)cc2)CC[C@@H]1Oc1ccc(C#N)c(Cl)c1 (stereo partly shown) [compound 26]	A (>90% degradation (24 hr treatment))	A (>90% degradation (24 hr treatment))				
N#Cc1ccc(O[C@H]2CC[C@H](NC(=O)c3ccc(N4CCN(CC5CN(c6ccc7c(c6)C(=O)N(C6CCC(=O)NC6=O)C7=O)C5)CC4)cc3)CC2)cc1Cl (stereo partly shown) [compound 224, N-((1r,4r)-4-(3-chloro-4-cyanophenoxy)cyclohexyl)-4-(4-((1-(2-(2,6-dioxopiperidin-3-yl)-1,3-dioxoisoindolin-5-yl)azetidin-3-yl)methyl)piperazin-1-yl)benzamide]			38	79	85	86
N#Cc1ccc(O[C@H]2CC[C@H](NC(=O)c3ccc(NCCCCCCCCNc4ccc5c(c4)C(=O)N(C4CCC(=O)NC4=O)C5=O)cc3)CC2)cc1Cl (stereo partly shown) [compound 214, N-((1r,4r)-4-(3-chloro-4-cyanophenoxy)cyclohexyl)-4-((8-((2-(2,6-dioxopiperidin-3-yl)-1,3-dioxoisoindolin-5-yl)amino)octyl)amino)benzamide]			27	43	65	46
N#Cc1ccc(N[C@H]2CC[C@H](NC(=O)c3ccc(N4CCN(CC5CCN(c6ccc7c(c6)C(=O)N(C6CCC(=O)NC6=O)C7=O)CC5)CC4)cc3)CC2)cc1Cl (stereo partly shown) [compound 27]	A (>90% degradation (24 hr treatment))	A (>90% degradation (24 hr treatment))				
C[C@H]1C[C@H](NC(=O)c2ccc(N3CCN(CC4CCN(c5ccc6c(c5)C(=O)N(C5CCC(=O)NC5=O)C6=O)CC4)CC3)cc2)CC[C@H]1Oc1ccc(C#N)c(Cl)c1 (stereo partly shown) [compound 24]	A (>90% degradation (24 hr treatment))	A (>90% degradation (24 hr treatment))				
CN(c1ccc(C#N)c(Cl)c1)[C@H]1CC[C@H](NC(=O)c2ccc(N3CCN(C4CCN(c5ccc6c(c5)C(=O)N(C5CCC(=O)NC5=O)C6=O)CC4)CC3)cc2)CC1 (stereo partly shown) [compound 30]	A (>90% degradation (24 hr treatment))	A (>90% degradation (24 hr treatment))				
